Source: patent US5292901A, “Benzodioxole derivatives” (Eisai Co., Ltd., priority 1987, dated 1994)

Columns and labels:
[1] = Study of plants used as folk medicines for liver trouble remedies; conditions: in words
[2] = system: liver injury induced by D-galactosamine; assay: Experimental Example 2b: inhibition of liver injury in rats (group I-b), method given as that of Experimental Example 1b; assay type: in vivo, male Fischer (F344) rats; conditions: Rattus norvegicus, 48 h; Table 2b; compound 100 mg/kg oral in 0.5% methylcellulose; read-out: Inhibition ratio (%) GPT
Protocol: The test was conducted in the same manner as shown in Experimental Example 1b except that the test compound was orally administered to the rats in a dose of 100 mg/kg in 0.5% methylcellulose solution.

[3] = system: liver injury induced by D-galactosamine; assay: Experimental Example 1b: effect on liver injury induced by D-galactosamine in rats (group I-b); assay type: in vivo, male Fischer (F344) rats; conditions: Rattus norvegicus, po, 48 h, Table 1b, D-galactosamine 400 mg/kg, compound 100 mg/kg in 0.5% methylcellulose
[4] = read-out: Inhibition ratio (%) GPT
[5] = read-out: Inhibition ratio (%) HPT

Structure (SMILES)	effect as liver trouble remedy [1]	inhibition in vivo at 100 mg/kg [2] [%]	inhibition in vivo at 100 mg/kg [3, 4] [%]	inhibition in vivo at 100 mg/kg [3, 5] [%]
OCCSSSCc1ccccc1 [2-[(phenylmethyl)trithio]ethanol]	effective as liver trouble remedies			
O=C(O)CCCCSCCc1ccc2c(c1)OCO2 [Compound 11]		90	96	98
CC(CC(=O)O)SCCc1ccc2c(c1)OCO2 (centres unmarked) [Compound 13]		86	99	99
NC(=O)CSCCc1ccc2c(c1)OCO2 [Compound 16]		61	86	94
NC(=O)CCSCCc1ccc2c(c1)OCO2 [Compound 17]		98	97	99
CCOC(=O)CSCCc1ccc2c(c1)OCO2 [Compound 25]		21	34	61
C[S+]([O-])CCc1ccc2c(c1)OCO2 (centres unmarked) [Compound 26]		97	100	100
CS(=O)(=O)CCc1ccc2c(c1)OCO2 [Compound 28]		97	95	98
OC1OCC(Cc2ccc3c(c2)OCO3)C1Cc1ccc2c(c1)OCO2 (centres unmarked) [cubebin]	effective as liver trouble remedies			
